Results: ChEMBL document CHEMBL4196200 (J Med Chem, 2018)

How the values were obtained:
Vasopressin V2 receptor [1] = target: T1, Vasopressin V2 receptor (Homo sapiens, UniProt P30518); assay: Agonist activity at human V2 receptor expressed in CHO cells assessed as increase in cAMP accumulation by cAMP dynamic 2 assay; type: functional, cell-based
Vasopressin V1a receptor [2] = target: T2, Vasopressin V1a receptor (Homo sapiens, UniProt P37288); assay: Agonist activity at human V1A receptor expressed in CHO cells assessed as increase in myo-inositol 1-phosphate accumulation at 1 uM by IP-One assay relative to AVP; type: functional, cell-based
Target sequence in this assay (P37288 whole entry, looked up): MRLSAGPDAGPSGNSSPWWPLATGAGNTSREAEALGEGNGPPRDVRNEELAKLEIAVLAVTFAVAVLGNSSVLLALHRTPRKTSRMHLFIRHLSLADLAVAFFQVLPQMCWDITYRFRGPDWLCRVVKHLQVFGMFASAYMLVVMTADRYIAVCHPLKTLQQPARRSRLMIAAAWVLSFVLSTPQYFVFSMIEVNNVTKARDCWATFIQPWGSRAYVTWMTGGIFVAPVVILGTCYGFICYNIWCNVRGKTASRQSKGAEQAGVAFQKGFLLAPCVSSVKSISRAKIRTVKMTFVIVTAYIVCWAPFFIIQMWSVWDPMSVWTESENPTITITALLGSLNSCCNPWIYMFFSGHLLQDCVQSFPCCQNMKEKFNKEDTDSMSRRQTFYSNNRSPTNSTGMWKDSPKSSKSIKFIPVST

Homo sapiens [3] = species on record: Homo sapiens; assay: Selectivity for human V1a receptor over human V2 receptor
Homo sapiens [4] = species on record: Homo sapiens; assay: Selectivity for human OTR receptor over human V2 receptor
Vasopressin V1a receptor [5] = target: T2, Vasopressin V1a receptor; assay: Displacement of [3H]-AVP from human V1A receptor expressed in CHO cell membranes by radioligand binding assay
Target sequence in this assay (P37288 whole entry): as the sequence (P37288 whole entry, looked up) above

Vasopressin V2 receptor [6] = target: T1, Vasopressin V2 receptor; assay: Displacement of [3H]-AVP from human V2 receptor expressed in CHO cell membranes by radioligand binding assay
Oxytocin receptor [7] = target: T3, Oxytocin receptor (Homo sapiens, UniProt P30559); assay: Displacement of [3H]-AVP from human OXR receptor expressed in CHO cell membranes by radioligand binding assay
T3 sequence (P30559 whole entry): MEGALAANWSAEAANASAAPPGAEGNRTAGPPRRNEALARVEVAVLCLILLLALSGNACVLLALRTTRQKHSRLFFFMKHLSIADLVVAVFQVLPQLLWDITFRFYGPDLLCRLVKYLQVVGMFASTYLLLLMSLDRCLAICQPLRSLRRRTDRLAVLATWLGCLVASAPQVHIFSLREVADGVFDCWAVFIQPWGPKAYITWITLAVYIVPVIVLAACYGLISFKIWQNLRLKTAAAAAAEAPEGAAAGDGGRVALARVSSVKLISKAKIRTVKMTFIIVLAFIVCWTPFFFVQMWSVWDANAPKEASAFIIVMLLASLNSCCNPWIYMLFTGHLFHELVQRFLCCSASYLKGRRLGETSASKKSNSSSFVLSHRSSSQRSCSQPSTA

Vasopressin V1a receptor [8] = target: T2, Vasopressin V1a receptor; assay: Antagonist activity at human V1A receptor expressed in CHO cells assessed as inhibition of AVP-induced myo-inositol 1-phosphate accumulation by IP-One assay; type: functional, cell-based
Target sequence in this assay (P37288 whole entry, looked up): as the sequence (P37288 whole entry, looked up) above

[9] = target: T4, Oxytocin receptor (Homo sapiens) (UniProt P30559); assay: Antagonist activity at human OTR receptor expressed in CHO cells assessed as inhibition of OT-induced myo-inositol 1-phosphate accumulation at 1 uM by IP-One assay relative to OT; type: functional, cell-based
T4 sequence (whole entry): T3 sequence (P30559 whole entry)

[10] = target: T4, Oxytocin receptor (Homo sapiens); assay: Agonist activity at human OTR receptor expressed in CHO cells assessed as increase in myo-inositol 1-phosphate accumulation at 1 uM by IP-One assay relative to OT; type: functional, cell-based
Vasopressin V2 receptor [11] = target: T1, Vasopressin V2 receptor; assay: Antagonist activity at human V2 receptor expressed in CHO cells assessed as inhibition of AVP-induced cAMP accumulation by cAMP dynamic 2 assay; type: functional, cell-based
[12] = target: T4, Oxytocin receptor (Homo sapiens); assay: Antagonist activity at human OTR receptor expressed in CHO cells assessed as inhibition of OT-induced myo-inositol 1-phosphate accumulation by IP-One assay; type: functional, cell-based
Vasopressin V1a receptor [13] = target: T2, Vasopressin V1a receptor; assay: Antagonist activity at human V1A receptor expressed in CHO cells assessed as inhibition of AVP-induced myo-inositol 1-phosphate accumulation at 1 uM by IP-One assay relative to AVP; type: functional, cell-based
Target sequence in this assay (P37288 whole entry, looked up): as the sequence (P37288 whole entry, looked up) above

Vasopressin V1a receptor [14] = target: T2, Vasopressin V1a receptor; assay: Displacement of DY647 from SNAP-tagged V1A receptor (unknown origin) expressed in HEK293 cells by TR-FRET assay; type: cell-based
Target sequence in this assay (P37288 whole entry): as the sequence (P37288 whole entry, looked up) above

Vasopressin V1a receptor [15] = target: T2, Vasopressin V1a receptor; assay: Agonist activity at human V1A receptor expressed in HEK cells assessed as increase in intracellular calcium flux at 1 uM incubated for 45 mins by Indo1-AM dye based fluorescence assay relative to AVP; type: functional, cell-based
Target sequence in this assay (P37288 whole entry, looked up): as the sequence (P37288 whole entry, looked up) above

Vasopressin V1a receptor [16] = target: T2, Vasopressin V1a receptor; assay: Antagonist activity at human V1A receptor expressed in HEK cells assessed as inhibition of AVP-induced intracellular calcium flux incubated for 45 mins by Indo1-AM dye based fluorescence assay relative to AVP; type: functional, cell-based
Target sequence in this assay (P37288 whole entry): as the sequence (P37288 whole entry, looked up) above

Vasopressin V2 receptor [17] = target: T1, Vasopressin V2 receptor; assay: Displacement of DY647 from SNAP-tagged V2 receptor (unknown origin) expressed in HEK293 cells by TR-FRET assay; type: cell-based
Oxytocin receptor [18] = target: T3, Oxytocin receptor; assay: Displacement of DY647 from SNAP-tagged OTR receptor (unknown origin) expressed in HEK293 cells by TR-FRET assay; type: cell-based
[19] = target: T4, Oxytocin receptor (Homo sapiens); assay: Agonist activity at human OTR expressed in HEK cells assessed as increase in intracellular calcium flux at 1 uM incubated for 45 mins by Indo1-AM dye based fluorescence assay relative to OT; type: functional, cell-based
Oxytocin receptor [20] = target: T3, Oxytocin receptor; assay: Antagonist activity at human OTR expressed in HEK cells assessed as inhibition of OT-induced intracellular calcium flux incubated for 45 mins by Indo1-AM dye based fluorescence assay; type: functional, cell-based
Oxytocin receptor [21] = target: T3, Oxytocin receptor; assay: Agonist activity at human OTR expressed in HEK cells assessed as increase in intracellular calcium flux incubated for 45 mins by Indo1-AM dye based fluorescence assay; type: functional, cell-based
[22] = target: T4, Oxytocin receptor (Homo sapiens); assay: Agonist activity at human OTR expressed in HEK cells assessed as increase in intracellular calcium flux incubated for 45 mins by Indo1-AM dye based fluorescence assay relative to OT; type: functional, cell-based
[23] = target: T4, Oxytocin receptor (Homo sapiens); assay: Antagonist activity at human OTR expressed in HEK cells assessed as inhibition of OT-induced intracellular calcium flux at 1 uM incubated for 45 mins by Indo1-AM dye based fluorescence assay relative to OT; type: functional, cell-based

T1 sequence (P30518 whole entry): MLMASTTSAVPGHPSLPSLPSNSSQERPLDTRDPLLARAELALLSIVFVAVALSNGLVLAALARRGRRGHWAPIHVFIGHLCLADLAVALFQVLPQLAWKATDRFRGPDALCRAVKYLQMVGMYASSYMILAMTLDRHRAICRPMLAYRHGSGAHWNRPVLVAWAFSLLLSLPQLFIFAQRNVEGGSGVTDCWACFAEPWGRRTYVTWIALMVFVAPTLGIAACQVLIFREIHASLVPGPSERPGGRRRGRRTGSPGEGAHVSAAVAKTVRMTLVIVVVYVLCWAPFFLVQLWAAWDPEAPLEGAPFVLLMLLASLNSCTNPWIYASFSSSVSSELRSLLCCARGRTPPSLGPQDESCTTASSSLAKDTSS

| Emax (Vasopressin V1a receptor [2]) [%] | Ki (Vasopressin V1a receptor [5]) [nM] | Ki (Vasopressin V2 receptor [6]) [nM] | Ki (Oxytocin receptor [7]) [nM] | Kinact (Vasopressin V1a receptor [8]) [nM] | inhibition [9] [%] | Emax [10] [%] | inhibition (Vasopressin V1a receptor [13]) [%] | SMILES | also measured |
| --- | --- | --- | --- | --- | --- | --- | --- | --- | --- |
| < 10 |  |  |  |  |  |  |  | Cc1ccn(-c2ccc(C(=O)N3Cc4cnn(C)c4Nc4ccccc43)c(Cl)c2)n1 | Kact (Vasopressin V2 receptor [1]): 8.4 nM; Selectivity ratio (Homo sapiens [3]): 0.93; Selectivity ratio (Homo sapiens [4]): 0.59 |
| < 10 | 504 | 713 | < 10 | 218 | 20 | < 10 |  | O=C(c1ccc(Br)cc1)N1CCCCc2ccccc21 |  |
| < 10 | 2.28 | 78 | 10.4 |  |  | < 10 |  | O=C(c1ccc(-c2ccccc2)cc1)N1CCCCc2ccccc21 | Kinact (Vasopressin V2 receptor [11]): 132 nM; Kinact [12]: 42 nM |
| < 10 | 67 | 233 | 150 | 51 |  | < 10 |  | O=C(c1ccc(-c2cccnc2)cc1)N1CCCCc2ccccc21 | Kinact (Vasopressin V2 receptor [11]): 78 nM; Kinact [12]: 227 nM |
| < 10 | 63 | 121 | 104 | 184 |  | < 10 |  | CCCc1ccc(C(=O)N2CCCCc3ccccc32)cc1 | Kact (Vasopressin V2 receptor [1]): 92 nM; Kinact [12]: 172 nM |
| < 10 | 741 | > 1000 | 1330 |  | 21 |  | 15 | Cc1ccn(-c2ccc(C(=O)N3CCCC(N(C)C)c4ccccc43)cc2)n1 (stereo unspecified) | Selectivity ratio (Homo sapiens [3]): < 0.74 |
|  |  |  |  |  |  |  |  | COC(=O)CNC(=O)NCc1ccc(C(=O)N2Cc3cnn(C)c3Nc3ccccc32)cc1C | Ki (Vasopressin V1a receptor [14]): > 1000 nM; Emax (Vasopressin V1a receptor [15]): 5 to 10%; IC50 (Vasopressin V1a receptor [16]): 110 nM; Ki (Vasopressin V2 receptor [17]): > 1000 nM; Ki (Oxytocin receptor [18]): 385 nM; Emax [19]: 5 to 10%; IC50 (Oxytocin receptor [20]): > 1000 nM |
| < 10 | < 10 | < 10 | < 10 |  | 14 |  | < 10 | Cc1ccn(-c2ccc(C(=O)N3CCCC(=O)c4ccccc43)c(Cl)c2)n1 |  |
| < 10 | < 10 | 331 | > 1000 |  | < 10 |  | < 10 | Cc1ccn(-c2ccc(C(=O)N3CCCC(N(C)C)c4ccccc43)c(Cl)c2)n1 (stereo unspecified) | Kinact (Vasopressin V2 receptor [11]): 126 nM; Selectivity ratio (Homo sapiens [3]): > 30; Selectivity ratio (Homo sapiens [4]): > 3 |
| < 10 | 48 | 160 | 396 | 15 | 36 | < 10 |  | O=C(c1ccc(I)cc1)N1CCCCc2ccccc21 |  |
|  |  |  |  |  |  |  |  | Cc1cc(C(=O)N2Cc3cnn(C)c3Nc3ccccc32)ccc1CNC(=O)NCC(=S)N(C)C | Ki (Vasopressin V1a receptor [14]): 82 nM; Emax (Vasopressin V1a receptor [15]): 5 to 10%; IC50 (Vasopressin V1a receptor [16]): 9 nM; Ki (Vasopressin V2 receptor [17]): > 1000 nM; Ki (Oxytocin receptor [18]): 61 nM; Emax [19]: 5 to 10%; IC50 (Oxytocin receptor [20]): 600 nM |
| < 10 | 1080 | > 1000 | > 1000 | 305 | 32 | < 10 |  | CC(=O)Nc1ccc(C(=O)N2CCCCc3ccccc32)cc1 |  |
| < 10 | 573 | 334 | 340 | 177 | 30.6 | < 10 |  | O=C(c1ccc(-c2ncccn2)cc1)N1CCCCc2ccccc21 |  |
| < 10 | 82 | 468 | > 1000 | 81 |  | < 10 |  | CN(C)c1ccc(C(=O)N2CCCCc3ccccc32)cc1 | Kact (Vasopressin V2 receptor [1]): 80 nM; Kinact [12]: 186 nM |
| < 10 | < 10 | < 10 | < 10 |  | < 10 |  | < 10 | Cc1ccn(-c2ccc(C(=O)N3CCCCCC3)c(Cl)c2)n1 |  |
|  |  |  |  |  |  |  |  | Cc1cc(C(=O)N2Cc3cnn(C)c3Nc3ccccc32)ccc1CNC(=O)N1CCC[C@H]1C(=O)N(C)C | Ki (Vasopressin V1a receptor [14]): > 1000 nM; Emax (Vasopressin V1a receptor [15]): 5 to 10%; IC50 (Vasopressin V1a receptor [16]): 95 nM; Ki (Vasopressin V2 receptor [17]): > 1000 nM; Ki (Oxytocin receptor [18]): > 1000 nM; EC50 (Oxytocin receptor [21]): 300 nM; Emax [22]: 34%; inhibition [23]: 5 to 10% |
| < 10 | 34 | 282 | 84 | 48 |  | < 10 |  | Cc1ccn(-c2ccc(C(=O)N3CCCCc4ccccc43)cc2)n1 | Kact (Vasopressin V2 receptor [1]): 13 nM; Kinact [12]: 112 nM; Selectivity ratio (Homo sapiens [3]): 0.12; Selectivity ratio (Homo sapiens [4]): 0.3 |
|  |  |  |  |  |  |  |  | Cc1cc(C(=O)N2Cc3cnn(C)c3Nc3ccccc32)ccc1CNC(=O)NCC(=O)N(C)C | Ki (Vasopressin V1a receptor [14]): > 1000 nM; Emax (Vasopressin V1a receptor [15]): 5 to 10%; IC50 (Vasopressin V1a receptor [16]): 50 nM; Ki (Vasopressin V2 receptor [17]): > 1000 nM; Ki (Oxytocin receptor [18]): 417 nM; Emax [19]: 5 to 10%; IC50 (Oxytocin receptor [20]): 775 nM |
| < 10 | 164 | 1150 | 686 |  | 45 |  | 69 | Cc1ccn(-c2ccc(C(=O)N3CCCC(O)c4ccccc43)cc2)n1 (stereo unspecified) | Selectivity ratio (Homo sapiens [3]): 0.14; Selectivity ratio (Homo sapiens [4]): 0.6 |
| < 10 | 28 | 52 | 37.4 | 421 |  | < 10 |  | CCCCc1ccc(C(=O)N2CCCCc3ccccc32)cc1 | Kact (Vasopressin V2 receptor [1]): 18 nM; Kinact [12]: 113 nM |
| < 10 | 734 | > 1000 | < 10 |  | 15 | < 10 | 37 | Nc1ccc(C(=O)N2CCCCc3ccccc32)cc1 |  |
| < 10 | 556 | 507 | < 10 | 149 | 24.1 | < 10 |  | O=C(c1ccc(Cl)cc1)N1CCCCc2ccccc21 |  |
| < 10 | < 10 | 100 | 800 |  | 28 |  | 26 | Cc1ccn(-c2ccc(C(=O)N3CCCC(O)c4ccccc43)c(Cl)c2)n1 (stereo unspecified) | Kact (Vasopressin V2 receptor [1]): 28 nM; Selectivity ratio (Homo sapiens [3]): > 100; Selectivity ratio (Homo sapiens [4]): 8 |
| < 10 | > 1000 | > 1000 | < 10 |  | 19 | < 10 | 15 | C[N+](C)(C)c1ccc(C(=O)N2CCCCc3ccccc32)cc1 |  |
| < 10 | < 10 | > 1000 | < 10 |  |  |  | 19 | Cc1ccn(-c2ccc(C(=O)N3CCCC(=O)c4ccccc43)cc2)n1 |  |
